From ChEMBL document CHEMBL5321196, “Fluorescent and theranostic probes for imaging nicotinamide phosphoribosyl transferase (NAMPT)” (Eur J Med Chem, 2023) come the findings set out here.

Assay [1] addresses T1, Nicotinamide phosphoribosyltransferase (Homo sapiens, UniProt P43490). Briefly: Inhibition of NAMPT in human A2780 cells measured at 48 hrs.
Assay [2] addresses T1, Nicotinamide phosphoribosyltransferase. Briefly: Inhibition of NAMPT in human A2780 cells measured at 6 hrs.
Assay [3] shares this target. The assay is described as follows: Inhibition of NAMPT in human A2780 cells measured at 24 hrs.

T1 sequence (P43490 whole entry): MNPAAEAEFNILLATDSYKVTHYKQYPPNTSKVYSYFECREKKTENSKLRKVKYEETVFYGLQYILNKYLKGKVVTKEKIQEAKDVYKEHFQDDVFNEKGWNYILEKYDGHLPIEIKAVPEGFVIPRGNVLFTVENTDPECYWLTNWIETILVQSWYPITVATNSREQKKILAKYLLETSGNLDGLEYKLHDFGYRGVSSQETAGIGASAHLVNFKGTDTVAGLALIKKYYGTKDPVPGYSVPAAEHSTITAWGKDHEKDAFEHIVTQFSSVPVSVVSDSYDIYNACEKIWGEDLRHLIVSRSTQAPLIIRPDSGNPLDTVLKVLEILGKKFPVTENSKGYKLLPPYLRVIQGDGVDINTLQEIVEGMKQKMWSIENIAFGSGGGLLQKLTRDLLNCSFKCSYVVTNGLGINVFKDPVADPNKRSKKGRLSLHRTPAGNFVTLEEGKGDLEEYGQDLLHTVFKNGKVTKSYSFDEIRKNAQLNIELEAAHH

One may read the IC50 as the concentration at which inhibition is half-maximal. A higher IC50 goes with lower potency. As for `O=S(=O)(c1ccc(NC(=S)NCc2cccnc2)cc1)N1CCNCC1`, the 50% inhibitory concentration (IC50) in assay [1] was 4.05 µM; in assay [2] it was more than 10 µM; in assay [3], 7.18 µM.
